What was measured:
JNK = JNK activation in UV-irradiated skin of human volunteers (FIG. 2); details: occluded 24 hours
Protocol: Human volunteers, each having given informed consent, were used to determine the effect, if any, of pretreatment of their skin with an EGF-R PTK inhibitor prior to exposure of the skin to UV radiation. […] On the hip or buttock skin of volunteers, the test solution was placed (or on adjacent areas if both solutions were used), and the areas occluded for 24 hours; thereafter, the area was biopsied, or it was exposed to 2 MEDs of UV radiation and biopsied after exposure.
After the volunteers' skin was occuled for 24 hours, it was biopsied, and other areas were exposed to 2 MEDs of UV radiation and then biopsied about 4 hours thereafter.

cJUN protein = cJUN protein induced by UV radiation in skin of human volunteers (FIG. 3); type: in vivo; details: 5% genistein in DMSO, topical, occluded 24 hours; 2 MEDs UV; biopsy 8 hours after exposure; vs vehicle-treated skin
Protocol: The same procedure as described above was repeated, except that biopsy for cJUN protein was taken 8 hours after exposure to the UV radiation. […] The inset in the figure is a Western blot showing the amount of cJUN protein in genistein-treated versus vehicle-treated skin.

MMP-1 mRNA = MMP-1 mRNA induced by UV radiation in skin of human volunteers (FIG. 4); type: in vivo; details: 5% genistein in DMSO, topical, occluded 24 hours; 2 MEDs UV; biopsy 24 hours after exposure; vs vehicle-treated skin
Protocol: The same procedure as described above was repeated, except that biopsy for MMP-1 mRNA was taken 24 hours after exposure to the UV radiation.

[1] = system: IRAK (IL-1 Receptor-Activated Kinase); assay: IRAK phosphorylation/activity in cells in culture; type: cell-based
Excerpt: IRAK (IL-1 Receptor-Activated Kinase) is a protein […] kinase (enzyme) that binds to and is activated by IL-1R (the IL-1 receptor) and in turn activates a pathway that leads to induction of c-JUN kinase, MMPs, and thus collagen degradation.

c-JUN kinase = c-JUN kinase activity (phosphorylation of GST-c-jun) in cultured human keratinocytes after UV; type: cell-based

SMILES	skin penetration of the topical solution (JNK; 5% genistein in DMSO on human hip or buttock skin, inferred from the JNK results)	JNK activation (JNK; 5% genistein in DMSO, topical, 2 MEDs UV, biopsy about 4 hours after exposure)	increase in the amount of cJUN protein after UV exposure (cJUN protein)	increase in MMP-1 mRNA induced by UV (MMP-1 mRNA)	phosphorylated IRAK ([1]; PD 153035-treated cells exposed to IL-1)	IRAK activity ([1]; cells in culture treated with PD 153035 alone, no challenge)	phosphorylated IRAK ([1]; cells treated with PD 153035 and then challenged with UV or EGF)	phospho-GST-c-jun protein (c-JUN kinase; cultured human keratinocytes not exposed to UV)	phospho-GST-c-jun protein levels (c-JUN kinase; cultured human keratinocytes pretreated, then exposed to UV radiation)
O=c1c(-c2ccc(O)cc2)coc2cc(O)cc(O)c12 [genistein, 4′,5,7-trihydroxyisoflavone]	able to penetrate the skin	significantly reduced the amount of JNK activated	significantly inhibited	significantly inhibited	–	–	–	–	–
COc1cc2ncnc(Nc3cccc(Br)c3)c2cc1OC [PD 153035]	–	–	–	–	no reduction in phosphorylated IRAK	minimal baseline amount of IRAK activity	clearly had less phosphorylated IRAK	baseline amount of phospho-GST-c-jun protein	comparable with the baseline levels
